Target: T1, NPY Y2 receptor (Homo sapiens, UniProt P49146)
T1 construct: endogenous in cells; host or cells: KAN-Ts cells (membrane preparation)
T1 sequence (P49146 1-381): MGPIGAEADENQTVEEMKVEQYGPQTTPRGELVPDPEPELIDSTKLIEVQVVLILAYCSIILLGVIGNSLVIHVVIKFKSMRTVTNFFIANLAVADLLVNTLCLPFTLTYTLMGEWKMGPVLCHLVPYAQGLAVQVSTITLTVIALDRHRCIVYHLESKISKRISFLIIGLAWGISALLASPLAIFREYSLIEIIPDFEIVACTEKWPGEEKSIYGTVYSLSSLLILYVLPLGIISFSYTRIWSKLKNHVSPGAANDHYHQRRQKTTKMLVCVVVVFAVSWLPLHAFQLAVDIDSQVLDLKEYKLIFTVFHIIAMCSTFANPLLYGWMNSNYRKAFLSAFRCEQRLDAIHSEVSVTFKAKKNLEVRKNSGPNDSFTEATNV
Test: Neuropeptide Y2 radioligand binding assay ([125I]PYY, KAN-Ts cell membranes)
Conditions: membranes of KAN-Ts cells endogenously expressing Y2 receptors; [125I]PYY 80 pM; 1 h at rt; read-out: IC50 (μM), NPY Y2 binding
Procedure: KAN-Ts endogenously expressing Y2 receptors were used for the radioligand binding assay. Cells were grown to confluence on 150 cm^2 tissue culture plates, washed with phosphate-buffered saline (PBS), and scraped into 50 mL tubes. After centrifugation, the supernatant was aspirated, and the pellets frozen and stored at −80° C. Thawed pellets were homogenized with a polytron tissue grinder for 15 sec in 20 mM Tris-HCl, 5 mM EDTA. The homogenate was centrifuged at 800×g for 5 min and the collected supernatant was recentrifuged at 25000×g for 25 min. The resulting pellet was resuspended in binding buffer (20 mM HEPES, 120 mM NaCl, 0.22 mM KH2PO4, 1.3 mM CaCl2, 0.8 mM MgSO4). Membranes were incubated with [^125I]PYY (80 pM) in the presence or absence of test compound for 1 h at rt. The reaction was stopped by filtration through GF/C filter plates pre-soaked in 0.3% polyethylenimine and subsequently washed with Tris 50 mM, 5 mM EDTA buffer. Plates were dried for 1 h in a 55° C. oven, scintillation fluid was added and the radioactivity was counted in a Packard TopCount. Specific binding to the NPY receptor subtypes was determined by radioactivity that was bound in the presence of […] NPY. Each binding experiment was repeated three to eight times, each in duplicate. IC50 values (i.e. concentration of unlabelled peptide or antagonist required to compete for 50% of specific binding to the radioligand) were determined using the GraphPad Prism software (GraphPad Software Inc., San Diego Calif.) with a fit to a sigmoidal dose response curve. Apparent K values were as K=IC50/(1+C/KD), where C is concentration of the radioligand.

SMILES | IC50
CCN(CC)C(=O)C(c1ccccc1)N1CCN(c2ccc(-c3noc(=O)n3C)cc2F)CC1 (stereo not shown) [Compound 176, N,N-Diethyl-2-{4-[2-fluoro-4-(4-methyl-5-oxo-4,5-dihydro-[1,2,4]oxadiazol-3-yl)-phenyl]-piperazin-1-yl}-2-phenyl-acetamide] | 1.9 µM
CCN(CC)C(=O)C(c1ccccc1)N1CCN(c2ccc(-c3noc(SC)n3)cc2F)CC1 (stereo not shown) [Compound 177, N,N-Diethyl-2-{4-[2-fluoro-4-(5-methylsulfanyl-[1,2,4]oxadiazol-3-yl)-phenyl]-piperazin-1-yl}-2-phenyl-acetamide] | 0.51 µM
CC(C)c1noc(-c2ccc(N3CCN(C(C(=O)N(C)C)c4ccccc4)CC3)c(F)c2)n1 (stereo not shown) [Compound 180, 2-{4-[2-Fluoro-4-(3-isopropyl-[1,2,4]oxadiazol-5-yl)-phenyl]-piperazin-1-yl}-N,N-dimethyl-2-phenyl-acetamide] | 0.15 µM
CCc1noc(-c2ccc(N3CCN(C(C(=O)N(C)C)c4ccccc4)CC3)c(F)c2)n1 (stereo not shown) [Compound 181, 2-{4-[4-(3-Ethyl-[1,2,4]oxadiazol-5-yl)-2-fluoro-phenyl]-piperazin-1-yl}-N,N-dimethyl-2-phenyl-acetamide] | 0.53 µM
Cc1noc(-c2ccc(N3CCN(C(C(=O)N(C)C)c4ccccc4)CC3)c(F)c2)n1 (stereo not shown) [Compound 182, 2-{4-[2-Fluoro-4-(3-methyl-[1,2,4]oxadiazol-5-yl)-phenyl]-piperazin-1-yl}-N,N-dimethyl-2-phenyl-acetamide] | 0.56 µM
COC(=O)C(c1ccccc1)N1CCN(c2ccc(-c3nc(C)no3)cc2F)CC1 (stereo not shown) [Compound 183, {4-[2-Fluoro-4-(3-methyl-[1,2,4]oxadiazol-5-yl)-phenyl]-piperazin-1-yl}-phenyl-acetic acid methyl ester] | 3.1 µM
CCN(C)C(=O)C(c1ccccc1)N1CCN(c2ccc(-c3nc(C(C)C)no3)cc2F)CC1 (stereo not shown) [Compound 184, N-Ethyl-2-{4-[2-fluoro-4-(3-isopropyl-[1,2,4]oxadiazol-5-yl)-phenyl]-piperazin-1-yl}-N-methyl-2-phenyl-acetamide] | 2.2 µM
CC(C)c1noc(-c2ccc(N3CCN(C(C(=O)N4CCCC4)c4ccccc4)CC3)c(F)c2)n1 (stereo not shown) [Compound 185, 2-{4-[2-Fluoro-4-(3-isopropyl-[1,2,4]oxadiazol-5-yl)-phenyl]-piperazin-1-yl}-2-phenyl-1-pyrrolidin-1-yl-ethanone] | 0.12 µM
CCN(CC)C(=O)C(c1ccccc1)N1CCN(c2ccc(-c3cc(C)nn3-c3ccccc3)cc2F)CC1 (stereo not shown) [Compound 186, N,N-Diethyl-2-{4-[2-fluoro-4-(5-methyl-2-phenyl-2H-pyrazol-3-yl)-phenyl]-piperazin-1-yl}-2-phenyl-acetamide] | 0.11 µM
CCN(CC)C(=O)C(c1ccccc1)N1CCN(c2ccc(-c3cccn3C(=O)OC(C)(C)C)cc2F)CC1 (stereo not shown) [Compound 187, 2-{4-[4-(Diethylcarbamoyl-phenyl-methyl)-piperazin-1-yl]-3-fluoro-phenyl}-pyrrole-1-carboxylic acid tert-butyl ester] | 5 µM
CCN(CC)C(=O)C(c1ccccc1)N1CCN(c2ccc(-c3ccc[nH]3)cc2F)CC1 (stereo not shown) [Compound 188, N,N-Diethyl-2-{4-[2-fluoro-4-(1H-pyrrol-2-yl)-phenyl]-piperazin-1-yl}-2-phenyl-acetamide] | 0.63 µM
Cc1noc(-c2ccc(N3CCN(C(C(=O)N4CCC(F)(F)CC4)c4ccccc4)CC3)c(F)c2)n1 (stereo not shown) [Compound 189, 1-(4,4-Difluoro-piperidin-1-yl)-2-{4-[2-fluoro-4-(3-methyl-[1,2,4]oxadiazol-5-yl)-phenyl]-piperazin-1-yl}-2-phenyl-ethanone] | 0.48 µM
CCNC(=O)C(c1ccccc1)N1CCN(c2ccc(-c3nc(C)no3)cc2F)CC1 (stereo not shown) [Compound 190, N-Ethyl-2-{4-[2-fluoro-4-(3-methyl-[1,2,4]oxadiazol-5-yl)-phenyl]-piperazin-1-yl}-2-phenyl-acetamide] | 0.33 µM
CCN(CC)C(=O)C(c1ccccc1)N1CCN(c2ccc(C3=NN(C(C)C)C(=O)C3)cc2F)CC1 (stereo not shown) [Compound 191, N,N-Diethyl-2-{4-[2-fluoro-4-(1-isopropyl-5-oxo-4,5-dihydro-1H-pyrazol-3-yl)-phenyl]-piperazin-1-yl}-2-phenyl-acetamide] | 0.34 µM
CCOC(=O)C(c1ccccc1)N1CCN(c2ccc(-c3nc(C)no3)cc2F)CC1 (stereo not shown) [Compound 192, {4-[2-Fluoro-4-(3-methyl-[1,2,4]oxadiazol-5-yl)-phenyl]-piperazin-1-yl}-phenyl-acetic acid ethyl ester] | 0.38 µM
CCN(CC)C(=O)C(c1ccccc1)N1CCN(c2ccc(-c3ccccc3)cc2F)CC1 (stereo not shown) [Compound 193, N,N-Diethyl-2-[4-(3-fluoro-biphenyl-4-yl)-piperazin-1-yl]-2-phenyl-acetamide] | 0.42 µM
CCN(CC)C(=O)C(c1ccccc1)N1CCN(c2ccc(-c3cccc(Cl)c3)cc2F)CC1 (stereo not shown) [Compound 194, 2-[4-(3′-Chloro-3-fluoro-biphenyl-4-yl)-piperazin-1-yl]-N,N-diethyl-2-phenyl-acetamide] | 0.88 µM
CCN(CC)C(=O)C(c1ccccc1)N1CCN(c2ccc(-c3cnn(C)c3)cc2F)CC1 (stereo not shown) [Compound 195, N,N-Diethyl-2-{4-[2-fluoro-4-(1-methyl-1H-pyrazol-4-yl)-phenyl]-piperazin-1-yl}-2-phenyl-acetamide] | 0.9 µM
CCN(CC)C(=O)C(c1ccccc1)N1CCN(c2ccc(-c3ccc(Cl)cc3)cc2F)CC1 (stereo not shown) [Compound 196, 2-[4-(4′-Chloro-3-fluoro-biphenyl-4-yl)-piperazin-1-yl]-N,N-diethyl-2-phenyl-acetamide] | 0.92 µM
CCc1noc(-c2ccc(N3CCN(C(C(=O)N(C)CC)c4ccccc4)CC3)c(F)c2)n1 (stereo not shown) [Compound 197, N-Ethyl-2-{4-[4-(3-ethyl-[1,2,4]oxadiazol-5-yl)-2-fluoro-phenyl]-piperazin-1-yl}-N-methyl-2-phenyl-acetamide] | 0.075 µM
CC(=O)C(c1ccccc1)N1CCN(c2ccc(-c3nc(C(C)C)no3)cc2F)CC1 (stereo not shown) [Compound 198, 1-{4-[2-Fluoro-4-(3-isopropyl-[1,2,4]oxadiazol-5-yl)-phenyl]-piperazin-1-yl}-1-phenyl-propan-2-one] | 2.7 µM
CCCCC(C(=O)N(CC)CC)N1CCN(c2ccc(-c3nc(C)no3)cc2F)CC1 (stereo not shown) [Compound 199, 2-{4-[2-Fluoro-4-(3-methyl-[1,2,4]oxadiazol-5-yl)-phenyl]-piperazin-1-yl}-hexanoic acid diethylamide] | 2.8 µM
CCN(CC)C(=O)C(c1ccccc1)N1CCN(c2ccc(-c3cc(C)n[nH]3)cc2F)CC1 (stereo not shown) [Compound 200, N,N-Diethyl-2-{4-[2-fluoro-4-(5-methyl-2H-pyrazol-3-yl)-phenyl]-piperazin-1-yl}-2-phenyl-acetamide] | 0.81 µM
CCN(CC)C(=O)C(c1ccccc1)N1CCN(c2ccc(-c3ccccn3)cc2F)CC1 (stereo not shown) [Compound 201, N,N-Diethyl-2-[4-(2-fluoro-4-pyridin-2-yl-phenyl)-piperazin-1-yl]-2-phenyl-acetamide] | 0.74 µM
CCN(CC)C(=O)C(c1ccccc1)N1CCN(c2ccc(-c3cccnc3)cc2F)CC1 (stereo not shown) [Compound 202, N,N-Diethyl-2-[4-(2-fluoro-4-pyridin-3-yl-phenyl)-piperazin-1-yl]-2-phenyl-acetamide] | 1 µM
